Like-named read-outs stand apart in the source and are kept apart here.
Legend:
Surface tension = type: physicochemical
From the text: Surfactants by their very nature can have toxic effects on aquatic organisms. They can coat surfaces or membranes required for the organism's oxygen exchange with the environment. Thus, it is advantageous for surfactants to degrade rapidly in the environment once their useful purpose has been served. Preferred surfactants for use in the present formulations have low aquatic toxicity (Table 4) and are biodegradable (see FIG. 2). Preferably they are soluble or dispersible in water, so that they form homogenous solutions or mixtures with the FPD/water mixtures in the fluid. Also it is preferred that the surfactant reduces the surface tension of the fluid below 35 dynes/cm (see surface tension, Table 6).

D. Magnia = assay: Acute aquatic toxicity, 48 hr LC50; type: in vivo, daphnia magna
From the text: The present invention provides for deicing and anti-icing compositions that are environmentally advantaged.
As aforesaid, there are environmental issues associated with deicers and anti-icers, mostly as a result of the type of FPD used. Freezing point depressants are typically toxic to mammals. Ethylene glycol, in particular, is toxic to mammals (see rat LD50 data, Table 3). LC50, refers to Lethal Concentration, 50%, which is the concentration of a substance at which 50% of the population of test organisms die. Ethylene glycol has also been listed by the EPA as a hazardous air pollutant (HAP).
Another aspect of concern is the toxicity of FPDs on aquatic life and environment. […] (see Table 4, FPD aquatic toxicity data).

Rat = conditions: cited from earlier work

| Compound | Acute tox. to D. Magnia, ppm (48 hr LC50) (D. Magnia) | further results |
| --- | --- | --- |
| O [Water] |  | Surface Tension (dynes/cm) (Surface tension): 75 dynes/cm |
| CC(O)CO (centres unmarked) [Propylene glycol, reference compound] | 55,000 ppm |  |
| OCCOCCOCCO [Triethylene glycol] | 66,000 ppm | Rat Acute Oral Toxicity (LD50, g/kg) (Rat; in vivo, po): 17 g/kg |
| CC(O)CCO (centres unmarked) [1,3 Butanediol, reference compound] |  | Rat Acute Oral Toxicity (LD50, g/kg) (Rat; oral, acute): 18.6 g/kg |
| PEG-20 sorbitan oleate | 46,000 ppm |  |
| PEG-12 oleate | 13,000 ppm |  |
| OCCO [Ethylene glycol, reference compound] | 77,000 ppm |  |
